In PMC9102502, “The Influence of Selected Antipsychotic Drugs on Biochemical Aspects of Alzheimer’s Disease” (International Journal of Molecular Sciences, 2022):
Read-outs that look alike come from different tables or passages of the source.

What was measured:
[1] = system: human erythrocytes; experiment: Methemoglobin formation in RBC, compounds alone; assay type: cell-based; conditions: 250 μg/L
Experimental: (§1) The blood samples were centrifuged (3000 rpm, 10 min, 20 °C, Micro 22 R centrifuge, Hettich Zentrifugen, Tuttlingen, Germany) to separate erythrocytes from the plasma and washed three times with 0.9% saline (NaCl). […] The erythrocytes were suspended in 0.9% saline. As control of basal hemolysis, erythrocytes were incubated with 0.9% NaCl. For total hemolysis control erythrocytes were incubated with 2.0% v/v Triton X-100. Incubation with Triton X-100 and K4[Fe(CN)6] (at concentration 50 g/L) was performed to control methemoglobin (MetHb) formation. Moreover, an antioxidant control containing ascorbic acid (AA) at a concentration of 10 µg/mL was prepared, while AAPH at a concentration of 50 mmol/L was an oxidizing agent. Antipsychotics at concentrations equaling their maximum therapeutic plasma concentrations (TPCmax), as well as 5-fold higher (5 × TPCmax) and 5-fold lower than TPCmax (1/5 × TPCmax), and the oxidizing agent AAPH at a concentration of 50 mmol/L, were added to 2% RBC suspension. Controls and tested samples were incubated at 37 °C. […] The percentage of hemolysis was calculated with the following formula:Hemolysis (%) = (Asample/Atotal hemolysis) × 100%(1) where Asample—absorbance of the test sample; Atotal hemolysis—the absorbance of the reference sample with 2% Triton X solution, corresponding to complete hemolysis.

[2] = biological target: T1, human plasma butyrylcholinesterase (Homo sapiens, UniProt P06276); experiment: BuChE inhibition, modified Ellman's method; assay type: biochemical; conditions: experimental data, mean ± SD, n = 6–9
T1 construct: The solution of plasma 200-fold diluted with 0.9% NaCl; from tissue; host or cells: citrated plasma from blood of healthy human donors
T1 sequence (P06276 29-602): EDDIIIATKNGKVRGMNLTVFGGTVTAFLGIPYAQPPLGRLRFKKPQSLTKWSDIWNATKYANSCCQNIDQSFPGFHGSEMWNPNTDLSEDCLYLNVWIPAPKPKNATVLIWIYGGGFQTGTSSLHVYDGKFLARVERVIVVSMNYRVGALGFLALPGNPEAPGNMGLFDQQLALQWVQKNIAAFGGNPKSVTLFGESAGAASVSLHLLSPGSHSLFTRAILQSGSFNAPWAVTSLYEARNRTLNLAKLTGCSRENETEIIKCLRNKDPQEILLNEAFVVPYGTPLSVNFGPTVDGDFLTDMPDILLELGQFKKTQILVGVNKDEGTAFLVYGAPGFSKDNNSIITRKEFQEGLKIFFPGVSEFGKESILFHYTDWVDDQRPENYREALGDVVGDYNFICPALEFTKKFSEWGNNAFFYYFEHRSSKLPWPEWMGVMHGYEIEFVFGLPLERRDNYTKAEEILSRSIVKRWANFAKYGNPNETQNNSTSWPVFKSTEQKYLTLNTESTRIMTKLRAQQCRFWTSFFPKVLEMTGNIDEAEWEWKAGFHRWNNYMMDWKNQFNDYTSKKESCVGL
Experimental: (§2) The activity of both cholinesterases (AChE and BuChE) were assessed spectrophotometrically according to the Ellman’s method with some modifications by Worek et al.. This test development included experimental determination of the optimal testing conditions. For all measurements, 37 °C was used as the best temperature for enzymatic determinations in material of human origin.
(§3) The solution of plasma 200-fold diluted with 0.9% NaCl and solution of hemolyzed erythrocytes diluted 400-fold with 0.9% were incubated (37 °C, 15 min) with 5 μL DTNB (0.01 mol/L) and 10 μL tested compound at a wider range of concentration than the therapeutic range in order to assess the overall effect of the compound on human esterases (AChE and BuChE). The controls without antipsychotics, containing only DTNB and diluted plasma or diluted solution of hemolyzed erythrocytes, were prepared. […] The final volume of a sample was 500 μL. […] The maximal velocity of the reaction was determined on the basis of changes in absorbance over time.
(§4) AChE SI (selectivity index) was calculated by using the following formula: SI = IC50 of BuChE/IC50 of AChE. However, BuChE SI was defined as IC50 of AChE/IC50 of BuChE. Maximal velocity (Vmax) and the Michaelis constant (Km) were calculated with the use of linear regression—according to the Hanes–Woolf plot.

[3] = biological target: T2, human erythrocyte acetylcholinesterase (Homo sapiens, UniProt P22303); experiment: AChE inhibition, modified Ellman's method; assay type: biochemical; conditions: for AChE reaction velocity: control 0.259 ± 0.013 A/min
T2 construct: solution of hemolyzed erythrocytes diluted 400-fold; from tissue; host or cells: hemolyzed erythrocytes from blood of healthy human donors
T2 sequence (P22303 32-617 isoform P22303-2 limits assumed): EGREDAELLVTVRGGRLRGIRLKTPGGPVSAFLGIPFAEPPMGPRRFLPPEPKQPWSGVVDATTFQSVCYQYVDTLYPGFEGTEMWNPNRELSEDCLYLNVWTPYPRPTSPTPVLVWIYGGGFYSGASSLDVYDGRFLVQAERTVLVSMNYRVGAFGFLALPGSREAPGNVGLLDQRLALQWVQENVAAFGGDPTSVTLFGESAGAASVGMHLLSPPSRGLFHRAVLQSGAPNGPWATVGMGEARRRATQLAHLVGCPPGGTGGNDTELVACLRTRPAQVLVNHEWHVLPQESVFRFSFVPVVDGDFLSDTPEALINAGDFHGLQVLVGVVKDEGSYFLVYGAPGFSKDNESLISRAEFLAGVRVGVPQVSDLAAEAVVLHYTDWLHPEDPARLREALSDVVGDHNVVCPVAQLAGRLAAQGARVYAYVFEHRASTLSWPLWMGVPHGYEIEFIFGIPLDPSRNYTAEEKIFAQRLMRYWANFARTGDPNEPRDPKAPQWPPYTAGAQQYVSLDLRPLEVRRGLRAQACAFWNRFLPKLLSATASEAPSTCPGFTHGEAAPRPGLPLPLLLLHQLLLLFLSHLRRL
Experimental: as §2, §3, §4

[4] = biological target: BuChE (Homo sapiens, UniProt P06276); experiment: Kinetic parameters of enzymatic reaction (Hanes–Woolf), BuChE; assay type: biochemical; design: The solution of plasma 200-fold diluted with 0.9% NaCl; from tissue; host or cells: citrated plasma from blood of healthy human donors
BuChE, sequence (P06276 29-602): as the sequence (P06276 29-602) above
Experimental: Kinetic parameters were obtained on the basis of three individual experiments carried out on different biological materials. For this purpose, various concentrations of substrates (ATC and BTC) were used in experiments. The type of inhibition and kinetic parameters of enzymatic reactions were obtained by linear regression using the Hanes–Woolf equations.
as §4

[5] = system: human erythrocytes; experiment: RBC hemolysis, compounds alone; assay type: cell-based; conditions: 2% human erythrocyte (RBC) suspension, read-out: increase of disintegration of the erythrocyte membrane (hemolysis)
Experimental: as §1

[6] = system: human erythrocytes; experiment: Methemoglobin formation in RBC with AAPH; assay type: cell-based; conditions: 24 h, AAPH control 78.1%
Experimental: The blood samples were centrifuged (3000 rpm, 10 min, 20 °C, Micro 22 R centrifuge, Hettich Zentrifugen, Tuttlingen, Germany) to separate erythrocytes from the plasma and washed three times with 0.9% saline (NaCl). […] The erythrocytes were suspended in 0.9% saline. As control of basal hemolysis, erythrocytes were incubated with 0.9% NaCl. For total hemolysis control erythrocytes were incubated with 2.0% v/v Triton X-100. Incubation with Triton X-100 and K4[Fe(CN)6] (at concentration 50 g/L) was performed to control methemoglobin (MetHb) formation. Moreover, an antioxidant control containing ascorbic acid (AA) at a concentration of 10 µg/mL was prepared, while AAPH at a concentration of 50 mmol/L was an oxidizing agent. Antipsychotics at concentrations equaling their maximum therapeutic plasma concentrations (TPCmax), as well as 5-fold higher (5 × TPCmax) and 5-fold lower than TPCmax (1/5 × TPCmax), and the oxidizing agent AAPH at a concentration of 50 mmol/L, were added to 2% RBC suspension. Controls and tested samples were incubated at 37 °C. […] For each measurement, 0.5 mL samples were taken from incubated Eppendorf tubes and centrifuged (3000 rpm, 10 min). […] The percentage of hemolysis was calculated with the following formula:Hemolysis (%) = (Asample/Atotal hemolysis) × 100%(1) where Asample—absorbance of the test sample; Atotal hemolysis—the absorbance of the reference sample with 2% Triton X solution, corresponding to complete hemolysis.

[7] = biological target: T3, recombinant human β-amyloid (1–42) (Homo sapiens, UniProt P05067); experiment: Beta-amyloid aggregation, Thioflavin T fluorescence; assay type: biochemical; conditions: 24 and 48 h; both tested concentrations
T3 construct: recombinant human β-amyloid (1–42; ultrapure); purchased Sigma-Aldrich (St. Louis, MO, USA)
T3 sequence (P05067 672-713 limits assumed): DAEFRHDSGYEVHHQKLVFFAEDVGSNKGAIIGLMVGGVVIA
Experimental: Aβ42 peptide was dissolved in DMSO and left to hydrate for a few minutes. The solution was centrifuged at 10,000 rpm for 5 min at 4 °C to separate any precipitated material. The solution at a concentration of 220 μmol/L was stored in small aliquots at a temperature of −30 °C and before each experiment it was restored at 37 °C for 15 min. Test samples containing Aβ42 solution at the final concentration of 20 μmol/L was incubated with antipsychotics at concentrations equaling their TPC and 1/2 × TPC (v = 10 µL). The final volume of the test samples was 100 μL. The positive control constituted a sample of Aβ42 peptide, whereas the negative control contained tannic acid at the final concentrations of 0.1 µmol/L and 10 µmol/L. The fibrillation reaction was set up by addition of thioflavin ThT dye at a concentration of 5 µmol/L. The fluorescence intensity was measured at room temperature with Ex/Em = 440 nm/484 nm (Synergy H1; BioTek, Winooski, VT, USA). The measurements of fluorescence intensity expressed as relative fluorescence units (RFU) were taken at 10, 30, 60 and 90 min and then after 24 and 48 h. The fluorescence intensity measured for control equaled 100% of Aβ aggregation and it was used to estimate the inhibitory properties of the tested antipsychotics.

[8] = system: astrocytes; experiment: WST-1 viability under AAPH-induced oxidative stress, astrocytes; assay type: cell-based, human; conditions: benperidol 5 and 10 μg/L, penfluridol 12.5 μg/L, pimozide 15 μg/L, promazine 25 and 50 μg/L
Experimental: WST-1 assay (Takara, Takara Bio Europe, Saint-Germain-en-Laye, France) was used to assess the effects of antipsychotics on the growth of HUVEC and astrocytes. The experiments were conducted as described previously. HUVEC were seeded at a density of 7500 cells, and astrocytes at 5000 cells per well on 96-well microplates and cultured for 24 h followed by treatment with compounds at ½ × TPCmax and TPCmax or pure medium as a control (v = 100 μL) for another 24 h (37 °C, 5% CO2). Subsequently, the cells were washed with culture medium (100 μL) and WST-1 reagent diluted in medium (10 μL of reagent + 90 μL of medium) was added. The plates were incubated at 37 °C in 5% CO2 for another 90 min for HUVEC and 60 min for astrocytes. The absorbance was read at 450 nm using a microplate reader (iMARK, Bio-Rad, Hercules, CA, USA). The cells viability was expressed as a percentage of the control samples which constituted 100% viability.
Moreover, the WST-1 assay was used to evaluate potential protective effects of antipsychotics on the growth of HUVEC and astrocytes under conditions of AAPH-induced oxidative stress. The experimental conditions were the same as in viability studies. AA at the final concentration of 10 μg/mL was used as an antioxidant control. After reaching the confluence, the antipsychotics were added at concentrations equaling ½ × TPCmax and TPCmax. After 1 h incubation under standard conditions, 50 μL AAPH was added to the wells containing tested compounds or AA. The AAPH concentration was chosen on the basis of preliminary experiments—17.5 mmol/L in HUVEC experiments, and 15.0 mmol/L in the case of astrocytes.

CN(C)CCCN1c2ccccc2Sc2ccccc21 [Promazine, promazine]
formation of methemoglobin ([1]; 5 h of incubation): 39% | formation of methemoglobin ([1]; 24 h of incubation): 64% | IC50 ([2]; IC50 BuChE): 0.186 µM | IC50 ([2]; read-out: IC50 BuChE): 0.19 ± 0.02 µM | AChE reaction velocity ([3]; 100 µg/L): 0.245 ± 0.015 A/min | AChE reaction velocity ([3]; 200 µg/L): 0.232 ± 0.016 A/min | IC50 ([3]; theoretical values calculated on the basis of extrapolated plots): > 2 µM | Vmax(i) BuChE ([4]; compound at its IC50): 0.144 ± 0.036 A/min | Vmax(i) BuChE ([4]; compound at ½ IC50): 0.192 ± 0.059 A/min | type of inhibition of BuChE ([4]; from Km(i), Vmax(i) vs Km, Vmax, mixed inhibition): same type of inhibition | hemolysis at 5 h, 250 μg/L ([5]; 5 h of incubation): > 45% | hemolysis at 24 h, 250 μg/L ([5]; 24 h of incubation): > 59% | methemoglobin formation with AAPH ([6]; 10 μg/L): 60.7% | methemoglobin formation with AAPH ([6]; 50 μg/L): 54.5% | effect on Aβ aggregation after a longer incubation time [7]: substantially inhibit | astrocyte viability compared with the control (pure AAPH) [8]: statistically significant increase
